Measured values published in patent US20260077170A1, “MICRONEEDLE DRUG DELIVERY APPARATUS AND PREPARATION METHOD THEREOF” (TSINGHUA UNIVERSITY, priority 2023, published 2026).

How the values were obtained:
blood glucose = test: Hypoglycemic effect of insulin-loaded microneedle drug delivery apparatus in minipigs; assay type: in vivo, experimental minipigs; details: delivered into duodenum by gastroscope, real-time blood glucose over 4 hours
Description: Considering the similarities between pigs and humans in the structure of the digestive system and physiological functions, experimental minipigs were used as the animal model for functional verification of the apparatus in this example. To prevent the pigs' chewing behavior from damaging the microneedle drug delivery apparatus and to take the individual variations in gastric emptying time into account, in this example, after anesthetizing the pigs, the microneedle drug delivery apparatus prepared in Example 2 was delivered into the pigs' duodenum using a gastroscope, and this moment was defined as time zero, the beginning of monitoring of the drug concentration in serum and the drug delivery effect. Central venous blood samples were collected every 20 minutes for a continuous time period of 4 hours. Real-time blood glucose was measured using a portable blood glucose meter, and the results were illustrated in FIG. 13 and FIG. 14.

[1] = Bioavailability of insulin from serum pharmacokinetic curve (human insulin ELISA); assay type: in vivo, experimental minipigs; details: minipigs, (AUC/dose) relative to subcutaneous injection group, serum insulin over 4 hours
Description: Considering the similarities between pigs and humans in the structure of the digestive system and physiological functions, experimental minipigs were used as the animal model for functional verification of the apparatus in this example. To prevent the pigs' chewing behavior from damaging the microneedle drug delivery apparatus and to take the individual variations in gastric emptying time into account, in this example, after anesthetizing the pigs, the microneedle drug delivery apparatus prepared in Example 2 was delivered into the pigs' duodenum using a gastroscope, and this moment was defined as time zero, the beginning of monitoring of the drug concentration in serum and the drug delivery effect. Central venous blood samples were collected every 20 minutes for a continuous time period of 4 hours. Excess blood was placed in a coagulation tube, left to stand for approximately 40 minutes, and then centrifuged to separate the serum. […] Calculating the area under this curve (AUC) can be used to compare the bioavailability of different drug delivery methods. […] The bioavailability was calculated as the ratio of the area under the pharmacokinetic curve (AUC)/administered dose of the test group to the corresponding value of the subcutaneous injection group, for evaluating the efficiency of a drug delivery method. […]

human recombinant insulin
hypoglycemic effect (blood glucose): poor hypoglycemic effect
bioavailability [1]: 0.6%
